Drawing on PubChem BioAssay (NCI), this text covers TGI for four molecules.

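1) Cells in 96-well plates. 2) Compound, 48 h, 5 concentrations. 3) Linear interpolation between surrounding doses. 4) Unreached endpoint = highest concentration. The concentration for full growth arrest is given as TGI.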

Assay in all cases: growth of human tumour cells (NCI), 48 h
For experiment [1], the system named is COLO 205 colon.
Experiment [2] concerns MOLT-4 leukemia.
Experiment [3] relates to OVCAR-5 ovarian.
Experiment [4] concerns RXF 393 renal.
Experiment [5] has as its system SK-MEL-2 melanoma.
The test system of experiment [6] is SNB-19 CNS.
Experiment [7] has as its system SNB-75 CNS.
In experiment [8] the test system is SW-620 colon.
Experiment [9] has as its system UACC-62 melanoma.
Experiment [10] deals with UO-31 renal.

Turning to `CC(C)(Cc1ccccc1)N1C(=O)N1C(C)(C)Cc1ccccc1`, the TGI in experiment [1] is 77.8 µM; in [2], 55.6 µM; in experiment [3], 83.1 µM; in [4], 48.3 µM; in experiment [5], 48.4 µM; in experiment [6], greater than 100 µM. The TGI in experiment [7], in [8], in experiment [9] and in experiment [10] was greater than 100 µM throughout.

As for `COc1ccc2ccccc2c1CN1CCOCCOCCN(Cc2c(OC)ccc3ccccc23)CCOCCOCC1`, the TGI in experiment [1] is greater than 100 µM; in [2], greater than 90.1 µM; in experiment [3] it was greater than 100 µM; in experiment [4], greater than 100 µM; in experiment [5] it was 97.4 µM; in [6], greater than 100 µM. Also, the TGI was greater than 100 µM in [7], greater than 94.7 µM in experiment [8], greater than 100 µM in [9] and greater than 100 µM in experiment [10].

As to `COc1ccc(C2SCC(=O)N2NC(=O)C(C)Oc2ccc(Cl)cc2Cl)cc1` (stereo not given), the TGI in experiment [1] is greater than 100 µM; in experiment [2], 94.6 µM; in experiment [3], greater than 100 µM; in experiment [4] it was 59.2 µM; in experiment [5] it was greater than 100 µM; in experiment [6] it was greater than 100 µM. Moreover, the TGI in experiment [7] was 51.1 µM; in [8], greater than 100 µM; in experiment [9] it was greater than 100 µM; in experiment [10] it was greater than 100 µM.

Consider `N#C/C(=C1/c2cc([N+](=O)[O-])ccc2-c2c1cc([N+](=O)[O-])cc2[N+](=O)[O-])N1CCCCC1`, for which the TGI in experiment [1], in experiment [2], in experiment [3], in experiment [4], in experiment [5] and in experiment [6] was greater than 100 µM each time. In addition, the TGI was 41.2 µM in [7], greater than 100 µM in experiment [8], greater than 100 µM in experiment [9] and greater than 100 µM in experiment [10].
